Measured values as given in publication PMC6255753, “Investigation of the phosphorylation of Bacillus subtilis LTA synthases by the serine/threonine kinase PrkC” (Scientific Reports, 2018).
pKd: −log10 of the molar value.

Assays:
Experiment in all cases: thermal shift titration (SYPRO Orange), Hill fit
Assay type in all cases: binding
Conditions in all cases: read-out: Apparent KD
[1] = target: T1, eYfnI (YfnI) (Bacillus subtilis, UniProt Q797B3, T297D)
T1 construct: gene ltaS1; extracellular catalytic domain (borders not given), N-terminal 6His tag removed by AcTEV; E. coli Rosetta; pProEX-eYfnI
Text: (§1) thermal shift titration (SYPRO Orange), Hill fit on eYfnI (YfnI)

[2] = target: T2, eYfnI (YfnI) (Bacillus subtilis, UniProt Q797B3, T297A)
T2 construct: gene ltaS1; extracellular catalytic domain (borders not given), N-terminal 6His tag removed by AcTEV; E. coli Rosetta; pProEX-eYfnI
Text: as §1

[3] = target: T3, eYfnI (YfnI) (Bacillus subtilis, UniProt Q797B3)
T3 construct: gene ltaS1; extracellular catalytic domain (borders not given), N-terminal 6His tag removed by AcTEV; E. coli Rosetta; pProEX-eYfnI
Text: as §1

T2 sequence (Q797B3 215-639 T297A): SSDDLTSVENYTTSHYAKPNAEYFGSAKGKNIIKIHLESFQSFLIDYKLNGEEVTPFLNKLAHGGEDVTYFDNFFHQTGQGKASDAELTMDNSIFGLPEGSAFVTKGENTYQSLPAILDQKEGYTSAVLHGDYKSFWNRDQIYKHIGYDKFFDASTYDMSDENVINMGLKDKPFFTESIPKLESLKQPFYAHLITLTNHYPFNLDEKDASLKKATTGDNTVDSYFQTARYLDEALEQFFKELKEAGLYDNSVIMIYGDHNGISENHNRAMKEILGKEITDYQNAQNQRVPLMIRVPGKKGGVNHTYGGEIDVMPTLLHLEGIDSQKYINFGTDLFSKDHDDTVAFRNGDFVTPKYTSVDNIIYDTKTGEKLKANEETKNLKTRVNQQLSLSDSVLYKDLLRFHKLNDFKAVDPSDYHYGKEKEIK
T1 sequence (Q797B3 215-639 T297D): as the sequence (Q797B3 215-639 T297A) above, with A83D counted along it
T3 sequence (Q797B3 215-639): as the sequence (Q797B3 215-639 T297A) above, with A83T counted along it

pKd [1]: 2.27
pKd [2]: 2.10
pKd [3]: 2.54
Structure (SMILES): O=P(O)(O)OCC(O)CO (stereo not drawn) [GroP]
